Measured values taken from patent US9963445B2, “Chemical compounds” (SYNGENTA PARTICIPATIONS AG, priority 2013, dated 2018).

Experiments:
Type in all cases: in vivo
Abutilon theophrasti [1] = experiment: Post-emergence herbicidal activity, glasshouse pot test; set-up: key: 0 = no damage to plant, 5 = total damage to plant; conditions: Application post-emergence, rate 1000 g/ha, evaluated after 13 days
In short: (§1)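 Seeds sown in standard soil in pots, grown 8 days in glasshouse (24/16 °C day/night, 14 h light, 65% humidity), then sprayed with aqueous solution from active ingredient formulated in acetone/water (50:50) with 0.5% Tween 20. Plants regrown under same conditions, watered twice daily; damage scored after 13 days (0 none–5 total).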

Echinochloa crus-galli [2] = experiment: as above; set-up: key: 0 = no damage to plant, 5 = total damage to plant; conditions: Application post-emergence, rate 1000 g/ha, evaluated after 13 days
In short: as §1

Amaranthus retroflexus [3] = experiment: as above; set-up: key: 0 = no damage to plant, 5 = total damage to plant; conditions: Application post-emergence, rate 1000 g/ha, evaluated after 13 days
In short: as §1

Alopecurus myosuroides [4] = experiment: as above; set-up: key: 0 = no damage to plant, 5 = total damage to plant; conditions: Application post-emergence, rate 1000 g/ha, evaluated after 13 days
In short: as §1

zea mays [5] = experiment: as above; set-up: key: 0 = no damage to plant, 5 = total damage to plant; conditions: Application post-emergence, rate 1000 g/ha, evaluated after 13 days
In short: as §1

Setaria faberi [6] = experiment: as above; set-up: key: 0 = no damage to plant, 5 = total damage to plant; conditions: Application post-emergence, rate 1000 g/ha, evaluated after 13 days
In short: as §1

Abutilon theophrasti [7] = experiment: Pre-emergence herbicidal activity, glasshouse pot test; conditions: pre-emergence spray, rate 1000 g/ha, evaluated after 13 days, scale 0-5
In short: (§2)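 Sown pots sprayed pre-emergence (day 1), acetone/water + 0.5% Tween 20 vehicle. Damage rated 0–5 at 13 days.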

Echinochloa crus-galli [8] = experiment: as above; conditions: pre-emergence spray, rate 1000 g/ha, evaluated after 13 days, scale 0-5
In short: as §2

Amaranthus retroflexus [9] = experiment: as above; conditions: pre-emergence spray, rate 1000 g/ha, evaluated after 13 days, scale 0-5
In short: as §2

Alopecurus myosuroides [10] = experiment: as above; conditions: pre-emergence spray, rate 1000 g/ha, evaluated after 13 days, scale 0-5
In short: as §2

zea mays [11] = experiment: as above; conditions: pre-emergence spray, rate 1000 g/ha, evaluated after 13 days, scale 0-5
In short: as §2

Setaria faberi [12] = experiment: as above; conditions: pre-emergence spray, rate 1000 g/ha, evaluated after 13 days, scale 0-5
In short: as §2

Compound | ABUTH herbicidal damage score (Abutilon theophrasti [1]) | ECHCG herbicidal damage score (Echinochloa crus-galli [2]) | AMARE herbicidal damage score (Amaranthus retroflexus [3]) | ALOMY herbicidal damage score (Alopecurus myosuroides [4]) | ZEAMX herbicidal damage score (zea mays [5]) | SETFA herbicidal damage score (Setaria faberi [6]) | ABUTH damage score, application pre-emergence (Abutilon theophrasti [7]) | ECHCG damage score, application pre-emergence (Echinochloa crus-galli [8]) | AMARE damage score, application pre-emergence (Amaranthus retroflexus [9]) | ALOMY damage score, application pre-emergence (Alopecurus myosuroides [10]) | ZEAMX damage score, application pre-emergence (zea mays [11]) | SETFA damage score, application pre-emergence (Setaria faberi [12])
COC1=C(C)C(O)N(c2ccc([N+](=O)[O-])cn2)C1=O (stereo not drawn) [AI29] | 0 | 0 | 0 | 0 | 1 | 0 | 0 | 0 | 2 | 1 | 0 | 1
COC1=C(C)C(O)N(c2cc(C(C)(C)C)ccn2)C1=O (stereo not drawn) [AI4] | 5 | 5 | 5 | 5 | 3 | 5 | 4 | 4 | 5 | 3 | 1 | 5
COC1=C(C)C(O)N(c2nccc(C(C)(C)C)n2)C1=O (stereo not drawn) [DI1] | 5 | 5 | 5 | 5 | 1 | 5 | 5 | 5 | 5 | 3 | 2 | 5
CCOC(=O)c1cnc(N2C(=O)C(OC)=C(C)C2O)nc1C(F)(F)F (stereo not drawn) [DI2] | 5 | 5 | 5 | 4 | 4 | 5 | 5 | 5 | 5 | 4 | 3 | 5
C#CCNC(=O)c1cnc(N2C(=O)C(OC)=C(C)C2O)cc1C(F)(F)F (stereo not drawn) [AI10] | 4 | 5 | 5 | 5 | 5 | 5 | 5 | 5 | 5 | 4 | 4 | 5
CC1=C(Cl)C(=O)N(c2cc(C(F)(F)F)c(C(=O)NC(C)(C)C)cn2)C1O (stereo not drawn) [AF88] | 5 | 5 | 5 | 5 | 5 | 5 | 5 | 5 | 5 | 4 | 4 | 5
COC1=C(C)C(O)N(c2ccc(C(=O)NC(C)(C)C#N)nn2)C1=O (stereo not drawn) [BI7] | 4 | 4 | 5 | 4 | 2 | 5 | 4 | 3 | 5 | 3 | 1 | 4
CC1=C(Cl)C(=O)N(c2ccc(S(C)(=O)=O)cn2)C1O (stereo not drawn) [AF54] | 2 | 3 | 0 | 2 | 0 | 1 | 0 | 1 | 0 | 0 | 2 | 0
COC1=C(C)C(O)N(c2cc(C(F)(F)F)c(Br)cn2)C1=O (stereo not drawn) [AI2] | 5 | 5 | 5 | 5 | 4 | 5 | 3 | 4 | 5 | 4 | 2 | 1
CC1=C(Cl)C(=O)N(c2ncc(C#N)c(C(C)(C)C)n2)C1O (stereo not drawn) [DF6] | 5 | 5 | 5 | 4 | 1 | 5 | 2 | 4 | 5 | 3 | 2 | 4
CCN(C)c1cc(N2C(=O)C(Cl)=C(C)C2O)ncn1 (stereo not drawn) [CF16] | 3 | 5 | 3 | 4 | 1 | 5 | 2 | 2 | 2 | 1 | 1 | 4
CC1=C(Br)C(=O)N(c2cc(C(C)(C)C#N)ncn2)C1O (stereo not drawn) [CG3] | 5 | 5 | 5 | 5 | 3 | 5 | 4 | 4 | 5 | 4 | 3 | 5
